Test systems include A549 NSCLC; ACHN renal; EKVX NSCLC; HCT-116 colon; KM12 colon; M14 melanoma; OVCAR-4 ovarian; OVCAR-8 ovarian; RXF 393 renal; SK-MEL-5 melanoma; SK-OV-3 ovarian; UACC-257 melanoma; UO-31 renal; A498 renal; RPMI-8226 leukemia.
Common to all, as to experiment: growth of human tumour cells (NCI), 48 h

Molecules are shown by their SMILES.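 Values below derive from 48-hour exposures of cells grown in 96-well plates, with endpoints linearly interpolated between the two concentrations bracketing the appropriate inhibition level. TGI marks complete inhibition of growth.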 Some results are limits rather than exact numbers.

For the molecule `Cc1nc(Nc2ccccc2)sc1C(=O)NNc1ccc([N+](=O)[O-])cc1[N+](=O)[O-]`, the TGI in the experiment with A549 NSCLC was over 100 µM; with ACHN renal, over 100 µM; in the experiment on EKVX NSCLC, 71.2 µM; in the experiment on HCT-116 colon it was over 100 µM; with KM12 colon it was over 100 µM; with M14 melanoma, over 100 µM. Besides, the TGI in the experiment with OVCAR-4 ovarian is over 100 µM; in the experiment with OVCAR-8 ovarian, over 100 µM; in the experiment with RXF 393 renal, 78.5 µM; in the experiment on SK-MEL-5 melanoma it was 68.5 µM; in the experiment with SK-OV-3 ovarian, over 100 µM; in the experiment with UACC-257 melanoma, over 100 µM. In the experiment with UO-31 renal, this molecule yielded a TGI of over 100 µM.

For `O=C(O)Cn1c(=O)[nH]c(=O)c2[nH]cnc21`, the TGI in the experiment on A498 renal, in the experiment on A549 NSCLC, in the experiment with ACHN renal, in the experiment with EKVX NSCLC, in the experiment on HCT-116 colon and in the experiment with KM12 colon was over 100 µM throughout. For the same molecule, the TGI with M14 melanoma, in the experiment on OVCAR-4 ovarian, with OVCAR-8 ovarian, with RXF 393 renal, in the experiment on SK-MEL-5 melanoma and in the experiment on SK-OV-3 ovarian was over 100 µM throughout. Also, the TGI with UACC-257 melanoma and with UO-31 renal was over 100 µM each time.

Take `CC(=O)NC(CCCNC(=O)NCCCl)C(=O)NCc1ccccc1` (configuration not stated): the TGI in the experiment on A549 NSCLC, in the experiment on ACHN renal, in the experiment with EKVX NSCLC, in the experiment with HCT-116 colon, with KM12 colon and in the experiment on M14 melanoma was over 100 µM throughout. Also, the TGI in the experiment on OVCAR-4 ovarian, in the experiment with OVCAR-8 ovarian, with RPMI-8226 leukemia, with RXF 393 renal, in the experiment with SK-MEL-5 melanoma and in the experiment with UACC-257 melanoma was over 100 µM each time. The molecule further came in with a TGI in the experiment with UO-31 renal of over 100 µM.

Take `COc1ccc(NC(=O)CC(=O)N/N=C/c2ccc(N(CCC#N)S(=O)(=O)c3ccccc3)cc2)cc1`: the TGI in the experiment with A549 NSCLC, in the experiment on ACHN renal, in the experiment with EKVX NSCLC, in the experiment with HCT-116 colon, in the experiment on KM12 colon and in the experiment with M14 melanoma was over 100 µM each time. The TGI with OVCAR-4 ovarian, in the experiment on OVCAR-8 ovarian, in the experiment on RPMI-8226 leukemia, in the experiment on SK-MEL-5 melanoma, in the experiment with SK-OV-3 ovarian and in the experiment with UACC-257 melanoma was over 100 µM each time. In the experiment on UO-31 renal, this molecule displayed a TGI of over 100 µM.

As to `COC(=O)c1ccccc1NC(=O)C(=O)CC(=O)CC(c1ccccc1)c1c(O)c2ccccc2oc1=O` (configuration not stated), the TGI in the experiment on A498 renal, with A549 NSCLC, in the experiment with ACHN renal, in the experiment on EKVX NSCLC, in the experiment with HCT-116 colon and in the experiment with KM12 colon was over 100 µM each time. In addition, the TGI in the experiment with M14 melanoma, in the experiment on OVCAR-4 ovarian, with OVCAR-8 ovarian, with RPMI-8226 leukemia, in the experiment on RXF 393 renal and in the experiment with SK-MEL-5 melanoma was over 100 µM in each case. Besides, the TGI in the experiment on SK-OV-3 ovarian, in the experiment with UACC-257 melanoma and with UO-31 renal was over 100 µM in each case.

Turning to `CC(C)(Oc1ccc2c(=O)cc(-c3ccccc3)oc2c1)C(=O)Nc1c(Cl)cccc1Cl`, the TGI with A498 renal, with A549 NSCLC, in the experiment with EKVX NSCLC, in the experiment on HCT-116 colon, in the experiment with KM12 colon and with M14 melanoma was over 100 µM in each case. The TGI in the experiment on OVCAR-8 ovarian was over 100 µM; in the experiment on RPMI-8226 leukemia it was over 100 µM; with RXF 393 renal it was 30.2 µM; in the experiment with SK-MEL-5 melanoma, over 100 µM; in the experiment on SK-OV-3 ovarian it was over 100 µM; in the experiment with UACC-257 melanoma, over 100 µM. Further, in the experiment with UO-31 renal, the TGI was over 100 µM.

As for `CCc1cccc(CC)c1NC(=O)C1=C(C)NC(C)=C(C(=O)Nc2c(CC)cccc2CC)C1c1ccc2c(c1)OCO2`, the TGI is 38.9 µM with A498 renal; 66.5 µM in the experiment on A549 NSCLC; 39 µM with ACHN renal; 38.3 µM with EKVX NSCLC; 35.7 µM with HCT-116 colon; 36.5 µM with KM12 colon. For the same molecule, the TGI in the experiment with M14 melanoma is 31.1 µM; in the experiment with OVCAR-4 ovarian it was 42.9 µM; in the experiment on OVCAR-8 ovarian, 34.7 µM; in the experiment with RPMI-8226 leukemia, over 100 µM; in the experiment on SK-MEL-5 melanoma, 33 µM; in the experiment with SK-OV-3 ovarian it was 60.6 µM. Also, the TGI in the experiment on UACC-257 melanoma came to 35.1 µM; with UO-31 renal, 30.8 µM.

Turning to `N#CC(C(=N/NC(N)=S)/C(=N/NC(N)=S)C(C#N)c1ccc(Cl)cc1)c1ccc(Cl)cc1` (configuration not stated), the TGI with A498 renal, in the experiment on A549 NSCLC, in the experiment on ACHN renal, in the experiment on EKVX NSCLC, in the experiment with HCT-116 colon and in the experiment on KM12 colon was over 100 µM each time. Also, the TGI in the experiment with M14 melanoma, in the experiment on OVCAR-4 ovarian, in the experiment with OVCAR-8 ovarian, in the experiment with RXF 393 renal, in the experiment with SK-MEL-5 melanoma and with SK-OV-3 ovarian was over 100 µM each time. Besides, the TGI in the experiment with UACC-257 melanoma and in the experiment on UO-31 renal was over 100 µM throughout.

As to `Cn1nc2ccc3nccc(N(CCO)CCO)c3c2n1`, the TGI in the experiment on A498 renal, in the experiment on A549 NSCLC, with ACHN renal, with EKVX NSCLC, in the experiment on HCT-116 colon and in the experiment on KM12 colon was over 100 µM each time. The TGI with M14 melanoma, with OVCAR-8 ovarian, with RPMI-8226 leukemia, in the experiment on RXF 393 renal, in the experiment with SK-MEL-5 melanoma and in the experiment on SK-OV-3 ovarian was over 100 µM in each case. Further, the TGI with UACC-257 melanoma and in the experiment on UO-31 renal was over 100 µM each time.

On to `CCc1cccc(C(C)CC)c1NC(=O)C(=O)C(CC(=O)Nc1ccc(Cl)c(Cl)c1)C(=O)OC` (configuration not stated), for which the TGI in the experiment with A498 renal was over 100 µM; in the experiment on A549 NSCLC, over 100 µM; in the experiment with ACHN renal, 69.8 µM; in the experiment on EKVX NSCLC, over 100 µM; with HCT-116 colon, over 100 µM; in the experiment with KM12 colon it was over 100 µM. The TGI in the experiment with M14 melanoma, in the experiment on OVCAR-4 ovarian, in the experiment on OVCAR-8 ovarian, in the experiment with RPMI-8226 leukemia, with RXF 393 renal and in the experiment with SK-OV-3 ovarian was over 100 µM in each case. Also, the TGI with UACC-257 melanoma and with UO-31 renal was over 100 µM throughout.

The values above are taken from PubChem BioAssay (NCI).
